Assay results taken from patent publication US11072592B2, “Small molecules that enable cartilage rejuvenation” (The Regents of the University of California, priority 2015, dated 2021).
Entries after “also recorded” stand apart in the source; their conditions may differ.

Experiments:
Format in all cases: cell-based
pSTAT3 and MYC [1] = experiment: Western blot of pSTAT3 and MYC in adult pig articular chondrocytes; details: for levels of MYC / levels of pSTAT3: adult pig articular chondrocytes, treated vs untreated, relative to histone H3
Text: (§1) Only early passages of chondrocytes (passage 0-2) were used for experimentation to avoid de-differentiation and loss of cartilage phenotype (Wu et al., 2014). Cartilage explants were made using 1, 2 or 8 mm biopsy punch and wet weight of each explant determined prior to experimentation. For cell isolation cartilage tissue was digested as described previously (Wu et al., 2015). Postnatal paraffin embedded joint and growth plate specimens were kindly donated by Dr Marcel Karperien from the University of Twente (Netherlands) and Dr Nick Bernthal from University of California Los Angeles. All donated material was anonymous and carried no personal identifiers. Cell culture reagents were purchased from Life Technologies, Inc. (Grand Island, N.Y.). Growth factors LIF, OSM, IL-6, TNF-α, IL-1β were purchased from Life Technologies, Inc (Grand Island, N.Y.). STATTIC, 10058-F4, SCl44 hydrochloride, and CP-690550 were purchased from Sigma Aldrich (St. Louis, Mo.). RCGD 423 (N-(4-Bromophenyl)-4-phenyl-1,3-thiazol-2-amine) was synthesized and provided by MolPort (Riga, Latvia). Fetal, adult and pig chondrocytes were cultured in DMEM F12 medium containing 10% (vol/vol) fetal bovine serum and 1% Penicillin-Streptomycin (vol/vol) at 37° C. in a humidified atmosphere of 95% aid and 5% CO2. Media was replenished with DMEM F12 medium containing 1% (vol/vol) fetal bovine serum and 1% Penicillin-Streptomycin (vol/vol) once treatments were added. For 3-dimensional (3D) cell cultures adult human articular chondrocytes were incubated with or without RCGD 423 using 10% solution of Mebiol® hydrogel from Cosmo Bio (Carlsbad, Calif.) in X-vivo 15 serum free medium from Lonza (Walkersville, Md.) as described previously (Wu et al., 2014).
(§2) Treated and non-treated ells were lysed in RIPA Lysis and Extraction Buffer (Pierce, Rockford, Ill.) containing protease inhibitors (Pierce) followed by sonication with a 15-second pulse at a power output of 2 using the VirSonic 100 (SP Industries Company, Warminster, Pa.). Protein concentrations were determined by BCA protein assay (Pierce). Proteins were resolved with SDS-PAGE utilizing 4-15% Mini-PROTEAN TGX Precast Gels and transferred to Trans-Blot Turbo Transfer Packs with a 0.2-μm pore-size nitrocellulose membrane. The SDS-PAGE running buffer, 4-15% Mini-PROTEAN TGX Precast Gels, Trans-Blot Turbo Transfer Packs with a 0.2-μm pore-size nitrocellulose membrane were purchased from Biorad (Hercules, Calif.). Nitrocellulose membranes were blocked in 5% nonfat milk in 0.05% (v/v) Tween 20 (PBST) (Corning, Manassas, Va.). Membranes were then incubated with primary antibodies phospho-STAT3 (#9131), MYC (#5605), NF-κB p65 (#D14E12), pAKT (#9272) Histone 3 (#9715) from Cell Signaling, (Danvers, Mass.); MEK1/2 (ab70613) and p38 (ab795) from Abcam (Cambridge, Mass.) overnight. After washing in PBS containing 0.05% (v/v) Tween 20 (PBST), membranes were incubated with Goat anti-Rabbit IgG (H+L) Secondary Antibody (Thermo Scientific Rockford, Ill.). After washing, membranes were developed with the Clarity Western ECL Blotting Substrate (Hercules, Calif.).

pSTAT3 and MYC [2] = experiment: Western blot of pSTAT3 and MYC in adult human articular chondrocytes; details: for levels of MYC / levels of pSTAT3: adult human articular cartilage/chondrocytes, treated vs untreated, relative to histone H3
Text: as §1, §2

[3] = test system: adult human articular chondrocytes; experiment: Transwell migration assay, adult human articular chondrocytes
Procedure: Cells were plated on Millicell 8 μm Transwell® inserts (Millipore, Billerica, Mass.) in 12-well plates (Fisher Scientific, Pittsburgh, Pa.) and stimulated with 10 μM of RCGD 423, 10 μM MYC inhibitor (10058-F4) or 10 μM STAT3 inhibitor (STATTIC) from Tocris Bioscience (Bristol, UK). Cells that migrated across the membranes were quantified by counting after 48 hours of treatment.

[4] = test system: MAPK, AKT, NF-κB pathways; experiment: Western blot of MAPK, AKT and NF-κB signaling in adult pig articular chondrocytes; details: 24 hours
Procedure: FIGS. 30A-30B. […] (FIG. 30A) Adult pig articular chondrocytes were cultured for 24 hours with the indicated cytokines or RCGD 423 and the levels of pSTAT3 and MYC were measured with respect to histone H3. Representative data for other proteins in the MAPK (p38 and MEK1/2), AKT (phospho-AKT; pAKT) or NF-KB (NF-KB p65) are also shown. (FIG. 30B) Levels of transcription of genes indicative of a catabolic response were determined via quantitative PCR in adult pig articular chondrocytes treated with OSM, IL-6, TNF-α, LIF or RCGD 423. Data are represented at mean±SD.
Cartilage degeneration is generally considered a feed-forward process, in which small losses of chondrocytes result in microenvironmental changes including induction of an inflammatory response and other pro-catabolic events (Hunziker, 2002). In turn, these alterations in the joint milieu promote production of matrix degrading proteins including MMPs (collagenases) and proteins of the ADAMTS family (aggrecanases). LIF has been implicated in promoting this cycle of matrix destruction during the pathogenesis of osteoarthritis (Hui et al., 2000; Lotz et al., 1992), although its role in this process has been controversial. In order to better understand the mechanism of action of LIF, RCGD 423 and known pro-inflammatory cytokines in the promotion of degeneration, we stimulated adult pig articular chondrocytes with these molecules and quantitated the levels of activated downstream proteins that mediate the cellular signaling response (FIG. 30A).
as §2

[5] = pig adult articular chondrocytes, 1 μM
[6] = 48 hours after withdrawal (data not shown)
[7] = human adult articular chondrocytes, 1 μM

| Compound | levels of MYC (pSTAT3 and MYC [1]) | levels of pSTAT3 (pSTAT3 and MYC [1]) | levels of c-MYC (pSTAT3 and MYC [1]; [5]) | levels of p-STAT3 (pSTAT3 and MYC [1]; [5]) | specificity and selectivity of effect for p-STAT3 and c-MYC (pSTAT3 and MYC [2]) | protein level of c-MYC after withdrawal (pSTAT3 and MYC [2]; [6]) | protein level of p-STAT-3 after withdrawal (pSTAT3 and MYC [2]; [6]) | levels of MYC (pSTAT3 and MYC [2]) | levels of pSTAT3 (pSTAT3 and MYC [2]) | levels of c-MYC (pSTAT3 and MYC [2]; [7]) | levels of p-STAT3 (pSTAT3 and MYC [2]; [7]) | migration / migratory potential [3] | NF-κB protein [4] | activation of AKT [4] | activation of the MAPK pathway [4] |
| --- | --- | --- | --- | --- | --- | --- | --- | --- | --- | --- | --- | --- | --- | --- | --- |
| Brc1ccc(Nc2nc(-c3ccccc3)cs2)cc1 [RCGD 423, N-(4-Bromophenyl)-4-phenyl-1,3-thiazol-2-amine] | strong increases | strong increases | elevated | elevated | highly specific and selective | decreased | decreased | robustly increased | robustly increased | elevated | elevated | increased | did not activate AKT or stabilize | did not activate; also recorded: no activation | weakly activating |
| LIF: interleukin 6 (IL-6)-class cytokine | increase | increase |  |  |  |  |  | large increases; also recorded: robustly increased | large increases; also recorded: robustly increased |  |  | increased |  | stimulated the activation; also recorded: strong activation | weaker response |
